Legend:
[1] = test system: normal NK cells expanded with K562-aAPC; experiment: percent inhibition of viability; higher = more inhibition; conditions: 72 h, IL-2 2.5 ng/mL
Protocol: (§1)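 Drug sensitivity and resistance testing on K562-aAPC-expanded normal NK cells: 5 concentrations (10-fold steps over a 10,000-fold range), 72 h at 37 °C, viability by CellTiter-Glo normalised to DMSO and benzethonium chloride controls; DSS from the fitted curve.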

[2] = test system: normal primary NK cells, pool 1 (3 donors), resting (IL-2 0 ng/mL); experiment: drug sensitivity score (DSS) (DSS units); higher = more sensitive; extreme values may be limits of the assay; conditions: 72 h
DERL-7 (IL-2 2.5 ng/mL) [3] = experiment: as above; conditions: 72 h
[4] = test system: normal primary NK cells, pool 3 (3 donors) (IL-2 2.5 ng/mL); experiment: as above; conditions: 72 h
KAI3 (IL-2 2.5 ng/mL) [5] = experiment: as above; conditions: 72 h
YT (IL-2 2.5 ng/mL) [6] = experiment: as above; conditions: 72 h
KHYG-1 (IL-2 2.5 ng/mL) [7] = experiment: as above; conditions: 72 h
NK-92 (IL-2 2.5 ng/mL) [8] = experiment: as above; conditions: 72 h
SNK-6 (IL-2 2.5 ng/mL) [9] = experiment: as above; conditions: 72 h
[10] = test system: normal primary NK cells, pool 2 (3 donors) (IL-2 2.5 ng/mL); experiment: as above; conditions: 72 h
NKL (IL-2 2.5 ng/mL) [11] = experiment: as above; conditions: 72 h
NK-YS (IL-2 2.5 ng/mL) [12] = experiment: as above; conditions: 72 h
IMC-1 (IL-2 20 ng/mL) [13] = experiment: as above; conditions: 72 h
[14] = test system: normal primary NK cells, pool 1 (3 donors) (IL-2 2.5 ng/mL); experiment: as above; conditions: 72 h
[15] = test system: normal primary NK cells, pool 1 (3 donors), resting (IL-2 0 ng/mL); experiment: percent inhibition of viability; higher = more inhibition; conditions: 72 h
DERL-7 (IL-2 2.5 ng/mL) [16] = experiment: as above; conditions: 72 h
[17] = test system: normal primary NK cells, pool 3 (3 donors) (IL-2 2.5 ng/mL); experiment: as above; conditions: 72 h
KAI3 (IL-2 2.5 ng/mL) [18] = experiment: as above; conditions: 72 h
YT (IL-2 2.5 ng/mL) [19] = experiment: as above; conditions: 72 h
KHYG-1 (IL-2 2.5 ng/mL) [20] = experiment: as above; conditions: 72 h
NK-92 (IL-2 2.5 ng/mL) [21] = experiment: as above; conditions: 72 h
SNK-6 (IL-2 2.5 ng/mL) [22] = experiment: as above; conditions: 72 h
[23] = test system: normal primary NK cells, pool 2 (3 donors) (IL-2 2.5 ng/mL); experiment: as above; conditions: 72 h
NKL (IL-2 2.5 ng/mL) [24] = experiment: as above; conditions: 72 h
NK-YS (IL-2 2.5 ng/mL) [25] = experiment: as above; conditions: 72 h
IMC-1 (IL-2 20 ng/mL) [26] = experiment: as above; conditions: 72 h
[27] = test system: normal primary NK cells, pool 1 (3 donors) (IL-2 2.5 ng/mL); experiment: as above; conditions: 72 h
[28] = test system: normal NK cells expanded with K562-aAPC; experiment: drug sensitivity score (DSS) (DSS units); higher = more sensitive; extreme values may be limits of the assay; conditions: 72 h; IL-2 2.5 ng/mL
Protocol: as §1

COc1cc2c(N3CCN(C(=O)Nc4ccc(OC(C)C)cc4)CC3)ncnc2cc1OCCCN1CCCCC1 [Tandutinib] (max concentration tested 1000 nM)
percent inhibition of viability [%]
Conditions | 0.1 nM | 1 nM | 10 nM | 100 nM | 1000 nM
DERL-7 (IL-2 2.5 ng/mL) [16] | 6.14 | 3.13 | 1.63 | 2.2 | -0.71
IMC-1 (IL-2 20 ng/mL) [26] | -5.53 | -2.46 | 0.78 | 2.8 | 18.4
KAI3 (IL-2 2.5 ng/mL) [18] | -0.83 | 3.14 | 3.31 | 3.31 | 17.9
KHYG-1 (IL-2 2.5 ng/mL) [20] | 3.28 | 0.15 | 6.9 | 6.14 | 16.8
NK-92 (IL-2 2.5 ng/mL) [21] | -7.68 | 0.56 | 17.9 | 8.5 | 19.1
NK-YS (IL-2 2.5 ng/mL) [25] | 2.01 | 2.91 | 6.63 | 1.61 | 13.4
NKL (IL-2 2.5 ng/mL) [24] | -15.4 | -9.75 | -9.72 | -2.92 | 7.53
SNK-6 (IL-2 2.5 ng/mL) [22] | 2.47 | -9.17 | 1.36 | -17.2 | -2.8
YT (IL-2 2.5 ng/mL) [19] | 1.06 | 0.08 | 6.39 | -0.96 | 9.65
[1] | 0.5 | 4.31 | 2.45 | 1.29 | 8.72
[15] | 6.87 | -8.83 | -1.76 | -7.72 | -7.9
[17] | -11.8 | -8.39 | -1.84 | -4.05 | -10.6
[23] | -9.1 | 2.32 | -0.09 | -2.34 | 4.26
[27] | 3.36 | -11.3 | -7.24 | -22 | -12.1

Conditions | drug sensitivity score
DERL-7 (IL-2 2.5 ng/mL) [3] | 0
IMC-1 (IL-2 20 ng/mL) [13] | 0.83
KAI3 (IL-2 2.5 ng/mL) [5] | 0.84
KHYG-1 (IL-2 2.5 ng/mL) [7] | 0.42
NK-92 (IL-2 2.5 ng/mL) [8] | 4.33
NK-YS (IL-2 2.5 ng/mL) [12] | 0
NKL (IL-2 2.5 ng/mL) [11] | 0
SNK-6 (IL-2 2.5 ng/mL) [9] | 0
YT (IL-2 2.5 ng/mL) [6] | 0
[2] | 0
[4] | 0
[10] | 0
[14] | 0
[28] | 0

C[C@@H](Oc1ccc2[nH]nc(/C=C/c3cnn(CCO)c3)c2c1)c1c(Cl)cncc1Cl (max concentration tested 1000 nM)
percent inhibition of viability [%]
Conditions | 0.1 nM | 1 nM | 10 nM | 100 nM | 1000 nM
DERL-7 (IL-2 2.5 ng/mL) [16] | -4.25 | -1.44 | 12.1 | 50 | 100
IMC-1 (IL-2 20 ng/mL) [26] | 2.17 | -5.43 | -8.61 | 21.8 | 98.1
KAI3 (IL-2 2.5 ng/mL) [18] | 2.24 | 4.1 | 25 | 79.6 | 90.2
KHYG-1 (IL-2 2.5 ng/mL) [20] | -1.37 | -1.77 | 23.3 | 101 | 98.7
NK-92 (IL-2 2.5 ng/mL) [21] | -7.71 | -11 | 4.63 | 65.8 | 84.5
NK-YS (IL-2 2.5 ng/mL) [25] | -6.71 | -5.42 | 10.9 | 60.3 | 93
NKL (IL-2 2.5 ng/mL) [24] | -5.85 | 0.25 | 37.2 | 79.9 | 84.6
SNK-6 (IL-2 2.5 ng/mL) [22] | -12 | 0.34 | 23.3 | 95 | 92.3
YT (IL-2 2.5 ng/mL) [19] | -2.34 | -5.3 | -2.2 | 9.63 | 85.6
[1] | -0.71 | -1.93 | 22.3 | 94.3 | 97.8
[15] | -1.49 | -11.6 | -11.3 | 13.6 | 13.4
[17] | -11.8 | -16.6 | 7.47 | 63.4 | 69.5
[23] | -12.2 | -5.79 | 27.6 | 62.9 | 71.7
[27] | -3.85 | -11 | 2.43 | 60.1 | 72.1

Conditions | drug sensitivity score
DERL-7 (IL-2 2.5 ng/mL) [3] | 11.6
IMC-1 (IL-2 20 ng/mL) [13] | 8.86
KAI3 (IL-2 2.5 ng/mL) [5] | 17.6
KHYG-1 (IL-2 2.5 ng/mL) [7] | 21.6
NK-92 (IL-2 2.5 ng/mL) [8] | 12.9
NK-YS (IL-2 2.5 ng/mL) [12] | 12.9
NKL (IL-2 2.5 ng/mL) [11] | 19.4
SNK-6 (IL-2 2.5 ng/mL) [9] | 20.8
YT (IL-2 2.5 ng/mL) [6] | 6.34
[2] | 0.82
[4] | 12.7
[10] | 15.3
[14] | 11.4
[28] | 20.3

CC(=O)[C@]1(O)Cc2c(O)c3c(c(O)c2[C@@H](O[C@H]2C[C@H](N)[C@H](O)[C@H](C)O2)C1)C(=O)c1ccccc1C3=O [Idarubicin] (max concentration tested 1000 nM)
percent inhibition of viability [%]
Conditions | 0.1 nM | 1 nM | 10 nM | 100 nM | 1000 nM
DERL-7 (IL-2 2.5 ng/mL) [16] | 5.69 | 7.69 | 65.2 | 100 | 101
IMC-1 (IL-2 20 ng/mL) [26] | -7.47 | -4.02 | 65.8 | 101 | 101
KAI3 (IL-2 2.5 ng/mL) [18] | 12.1 | 20.2 | 75.2 | 88.7 | 108
KHYG-1 (IL-2 2.5 ng/mL) [20] | -9.43 | 1.7 | 74.3 | 108 | 110
NK-92 (IL-2 2.5 ng/mL) [21] | 0.18 | 7.35 | 69.9 | 108 | 109
NK-YS (IL-2 2.5 ng/mL) [25] | -9.65 | -1.39 | 71.5 | 80.4 | 107
NKL (IL-2 2.5 ng/mL) [24] | 5.06 | 19.9 | 101 | 107 | 110
SNK-6 (IL-2 2.5 ng/mL) [22] | -5.01 | -15.7 | 84.5 | 96.8 | 94.4
YT (IL-2 2.5 ng/mL) [19] | -10.7 | -9.01 | -4.8 | 100 | 110
[1] | 1.32 | -3 | 56.3 | 97.4 | 101
[15] | 11 | 17.1 | 73.4 | 91.3 | 94
[17] | 4.34 | 4.31 | 46.5 | 98 | 100
[23] | 6.51 | -1.19 | 51.6 | 94.8 | 97.9
[27] | -4.61 | -3.53 | 21.8 | 96.4 | 98.4

Conditions | drug sensitivity score
DERL-7 (IL-2 2.5 ng/mL) [3] | 26.1
IMC-1 (IL-2 20 ng/mL) [13] | 25.6
KAI3 (IL-2 2.5 ng/mL) [5] | 28.5
KHYG-1 (IL-2 2.5 ng/mL) [7] | 26.5
NK-92 (IL-2 2.5 ng/mL) [8] | 26.8
NK-YS (IL-2 2.5 ng/mL) [12] | 26.4
NKL (IL-2 2.5 ng/mL) [11] | 33.7
SNK-6 (IL-2 2.5 ng/mL) [9] | 27.1
YT (IL-2 2.5 ng/mL) [6] | 17.6
[2] | 27.5
[4] | 23.2
[10] | 23.9
[14] | 20.9
[28] | 24.8

Reference: the supplement of paper PMC5908809
